Experimental data as given in patent US20240158418A1 (C4 Therapeutics, Inc., priority 2021, published 2024).

Tests used:
[1] = system: BaF3 cells expressing EGFR L858R-T790M; assay: Ba/F3 EGFR cell viability (CellTiter-Glo), L858R-T790M; type: cell-based; conditions: Mus musculus, read-out: CTGlo (GI50)
Text: (§1) RPMI 1640 media, cell culture flasks, and 384-well microplates were purchased from VWR (Radnor, PA, USA). Fetal bovine serum (FBS) was purchased from Life Technologies (Carlsbad, CA, USA) and CellTiter-Glo® was purchased from Promega (Madison, WI, USA). The Ba/F3 parental cell line was purchased from CrownBio (Santa Clara, CA). BaF3 cell lines ectopically expressing the EGFR mutations L858R, L858R-T790M, L858R-C797S, and L858R-T790M-C797S were purchased from CrownBio and EGFR mutations L858R-L718Q, L858R-T790M-L718Q, L858R-L792H, and L858R-T790M-L792H, were purchased from Signosis (Santa Clara, CA).
(§2) Cell viability was assessed based on the quantification of ATP using the CellTiter-Glo® assay (Promega, Madison, WI, USA). To determine the effect of compounds on cell viability, all Ba/F3 cell lines were plated at a cell density of 2000 cells/well in 384-well plates using RPMI 1640+10% FBS and treated with compounds of interest using a 10-point half-log dilution series in duplicate for 72 hours, with the highest dose set at […]. CellTiter-Glo® reagent was then added and luminescence signals were measured using an EnVision™ Multimode plate reader (Perkin Elmer, Santa Clara, CA). For data normalization, cells untreated with the test compounds at Time=72 hours were set to 100% (equivalent to maximal cell growth after 72 hours); cells untreated with the test compounds at Time=0 hours were set to 0% (equivalent to cytostasis); and media-only wells were set to −100% (equivalent to complete cytotoxicity). % Viability was determined by normalizing the signal with positive and DMSO treated negative controls on the same microtiter plate. The half-maximal inhibition of cell growth (GI50) is computed from where the fitted curve crosses 50% while the half-maximal lethal dose (LD50) is computed from where the fitted curve crosses −50%.

[2] = Tolerability / body weight change on oral dosing in tumor-bearing mice; type: in vivo
Protocol: (§3) Compound 1 was dosed at 20, 50, or 100 mg/kg/day and was formulated in PEG400 (20% v/v)+80% v/v SBECD (25% w/v) in ddH2O. […] Body weight and MTV were measured on a 2× weekly schedule. Statistical analysis was performed using a one-way ANOVA. Data are expressed as MTV±SEM.
as §3, with “1 and Compound 2 were” for “1 was”, “one-way ANOVA followed by Dunnett's multiple comparison test.” for “one-way ANOVA.”
2×10^5 luciferase-expressing NCI-H1975-luc tumor cells suspended in 2 μL RPMI-1640 media were injected into the right forebrain of female BALB/c nude mice. Tumor growth was monitored using imaging analysis. Mice were injected intraperitoneally with 15 mg/mL of D-luciferin and anesthetized with 1-2% isoflurane inhalation. 10 minutes post luciferin injection, mice were imaged using IVIS Lumina III (Perkin Elmer) and total bioluminescence signal (BLI, photons/s) was measured in a region of interest (ROI). BLI from ROI were quantified and used as an indicator of tumor burden. […] Body weight and MTV were measured on a 2× weekly schedule. Statistical analysis was calculated using the Mann-Whitney U test. Data are expressed as bioluminescent signal (photons/s). […]

[3] = system: BaF3 cells expressing EGFR L858R-T790M-L792H; assay: Ba/F3 EGFR cell viability (CellTiter-Glo), L858R-T790M-L792H; type: cell-based; conditions: Mus musculus, read-out: CTGlo (GI50)
Text: as §1, §2

[4] = system: engineered triple mutant EGFR (L858R-T790M-C797S) BaF3 tumors; assay: BaF3 triple mutant EGFR allograft efficacy; type: in vivo, female BALB/c nude mice; conditions: for efficacy on BaF3 tumor volume: Compound 1 or 2 at 20, 50, 100 mg/kg/day PO BID, osimertinib 25 mg/kg/day PO QD, 14 days
Protocol: Each Compound was administered BID (twice a day) orally (PO).
Tumor volume was measured twice weekly in two dimensions using calipers, and volume (mm^3) was calculated using the formula: V=0.5 a×b^2 where a and b are the long and short diameters of the tumor in mm, respectively. […] Treatment began on Day 0 with established subcutaneous BaF3 tumors with a mean tumor volume (MTV) of 108 mm^3.
Body weight and MTV were measured on a 2× weekly schedule. Statistical analysis was performed using a one-way ANOVA followed by Dunnett's multiple comparison test. Data are expressed as MTV±SEM.

[5] = system: BaF3 cells expressing EGFR L858R-C797S; assay: Ba/F3 EGFR cell viability (CellTiter-Glo), L858R-C797S; type: cell-based; conditions: Mus musculus, read-out: CTGlo (GI50)
Text: as §1, §2

Compound | GI50 [1] | tolerability of oral dosing [2] | GI50 [3] | tumor regression ([4]; BaF3 EGFR-L858R-T790M-C797S allograft mouse model, oral dosing) | efficacy on BaF3 tumor volume [4] | GI50 [5]
O=C1CC[C@H](Nc2ccc(N3CCC(O)(CC(=O)N4CC5(C4)CN(c4ccc(-c6cc(F)c7c(c6)C(=O)N(C(C(=O)Nc6nccs6)c6ncn8c6CCC8)C7)cc4)C5)CC3)c(F)c2)C(=O)N1 (stereo partly drawn) [Compound 1, 2-(6,7-dihydro-5H-pyrrolo[1,2-c]imidazol-1-yl)-2-[6-[4-[2-[2-[1-[4-[[(3S)-2,6-dioxo-3-piperidyl]amino]-2-fluoro-phenyl]-4-hydroxy-4-piperidyl]acetyl]-2,6-diazaspiro[3.3]heptan-6-yl]phenyl]-4-fluoro-1-oxo-isoindolin-2-yl]-N-thiazol-2-yl-acetamide] | 9 nM | well tolerated | 21 nM | 60% | reduced tumor volume | 5 nM
Cn1nc(N2CCC(=O)NC2=O)c2ccc([C@H]3CCN(CC(=O)N4CC5(C4)CN(c4ccc(-c6cc(F)c7c(c6)C(=O)N(C(C(=O)Nc6nccs6)c6ncn8c6CCC8)C7)cc4)C5)CC3(F)F)cc21 (stereo partly drawn) [Compound 2, 2-(6,7-dihydro-5H-pyrrolo[1,2-c]imidazol-1-yl)-2-[6-[4-[2-[2-[(4R)-4-[3-(2,4-dioxohexahydropyrimidin-1-yl)-1-methyl-indazol-6-yl]-3,3-difluoro-1-piperidyl]acetyl]-2,6-diazaspiro[3.3]heptan-6-yl]phenyl]-4-fluoro-1-oxo-isoindolin-2-yl]-N-thiazol-2-yl-acetamide] | 6 nM | well tolerated | 9 nM | – | reduced tumor volume | 3 nM
